Data from patent US20080188449A1, “Treatment of Conditions Caused By Calcium Abnormalities” (priority 2004, published 2008).

Assays:
Format in all cases: cell-based
polycystin-2 [1] = molecular target: T1, polycystin-2 (Mus musculus, UniProt O35245); assay: Fluo-4 calcium imaging in murine kidney epithelial cells; settings: 100 nM perfused, Pkd1^−/− cells
T1 construct: murine cell lines were derived from knockout and transgenic mice as previously reported; endogenous in cells; host or cells: Murine kidney proximal tubule epithelial cells, Pkd1-/- (MN24)
T1 sequence (O35245 1-966): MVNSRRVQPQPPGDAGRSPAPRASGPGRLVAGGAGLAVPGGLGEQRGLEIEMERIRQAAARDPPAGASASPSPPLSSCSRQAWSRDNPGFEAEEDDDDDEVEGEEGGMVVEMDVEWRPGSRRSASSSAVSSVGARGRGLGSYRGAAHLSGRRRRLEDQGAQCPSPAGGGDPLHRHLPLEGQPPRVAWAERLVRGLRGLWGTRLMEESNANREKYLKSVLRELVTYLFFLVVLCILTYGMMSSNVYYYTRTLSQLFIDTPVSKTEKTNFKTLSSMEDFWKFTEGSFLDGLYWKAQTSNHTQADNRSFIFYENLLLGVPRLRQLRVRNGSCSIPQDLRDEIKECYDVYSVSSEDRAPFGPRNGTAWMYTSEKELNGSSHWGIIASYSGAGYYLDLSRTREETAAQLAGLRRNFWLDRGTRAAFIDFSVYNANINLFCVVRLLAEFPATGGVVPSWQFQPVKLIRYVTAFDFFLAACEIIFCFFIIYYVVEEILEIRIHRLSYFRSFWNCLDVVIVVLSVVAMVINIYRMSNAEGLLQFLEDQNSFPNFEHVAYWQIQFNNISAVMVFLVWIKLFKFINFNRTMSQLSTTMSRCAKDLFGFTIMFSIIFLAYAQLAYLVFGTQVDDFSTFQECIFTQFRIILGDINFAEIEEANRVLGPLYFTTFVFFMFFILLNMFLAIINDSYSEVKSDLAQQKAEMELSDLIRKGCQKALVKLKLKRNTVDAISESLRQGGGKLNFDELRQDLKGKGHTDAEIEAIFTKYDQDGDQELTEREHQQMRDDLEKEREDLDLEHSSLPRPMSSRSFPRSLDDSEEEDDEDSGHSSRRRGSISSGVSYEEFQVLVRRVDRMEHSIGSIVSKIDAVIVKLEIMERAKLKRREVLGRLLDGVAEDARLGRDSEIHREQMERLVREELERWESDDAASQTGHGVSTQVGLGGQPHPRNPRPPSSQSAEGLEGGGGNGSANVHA
Description: (§1) Murine kidney epithelial cell lines with differing polycystin-1 or polycystin-2 expression were used to establish a cellular based mechanism for polycystin-2 mediated calcium release in response to triptolide. Because the biochemical purification analysis identified polycystin-2 as a putative triptolide binding protein, Applicants assessed whether the calcium release was dependent upon expression of polycystin-1. Epithelial cells derived from the proximal nephric tubules of Pkd1^−/− mice were first examined to determine if calcium release was observed when 100 nM of triptolide was perfused through the imaging chamber. […] To strengthen the evidence that polycystin-2 was necessary for calcium release elicited by triptolide addition, it was reconstituted by stable expression of Pkd2 into the background of Pkd2^−/− cells, which were assessed for sensitivity to triptolide.
(§2) Cells were plated on coverslips and loaded with Fluo-4 (Molecular Probes) diluted in DMSO/pluronic for 30 minutes prior to imaging. Cells were perfused with a calcium imaging buffer (HEPES, NaCl, KCl, MgSO4 and CaCl2)±100 nM triptolide. All cell traces are indicative of individual cellular fluorescence and calcium release. Data is presented as change of fluorescence over baseline control (no triptolide addition).

polycystin-2 [2] = assay: as above
Description: as §1, §2

HeLa cells [3] = assay: HeLa cell viability by trypan blue dye exclusion; settings: 10 μM (so in the source), 48 hours
HeLa cells [4] = assay: HeLa cell viability by trypan blue dye exclusion
Protocol: Since extracellular calcium concentration can influence triptolide binding Applicants sought to determine if the presence of calcium influences the rate of triptolide-mediated apoptosis. To first establish the growth rate of HeLa in media±calcium, cell counts were performed over a 72 hour time course. Although calcium-free media caused cells to detach more easily, the overall growth rates were similar where cell doubling occurred every 24 hours on average (FIG. 3B). For triptolide experiments, cells were initially equilibrated in medium±calcium for 16 hours before the addition of 100 nM triptolide. Cell death was assessed by trypan blue dye exclusion at 24, 48, and 72 hours post drug treatment. In the presence of calcium-containing medium, triptolide induced at least 50% cell death by 24 hours with this trend continuing through later time points (FIG. 3C).
Applicants' results have implicated reversible binding of triptolide to a potential binding protein or complex that can be regulated by calcium. To understand if triptolide function is further separable between cell death and NFκB inhibition, Applicants examined the effect of concentration on these two endpoints. HeLa cells were cultured in the presence of 0, 10, 25, 50, or 100 nM of triptolide and separately assessed for cell death or the ability to suppress NFκB transactivation promoted by TNF-α. Following 24-48 hours of culture, viable cells were recovered and counted. Following 24 hours, triptolide concentrations from 25-100 nM caused greater than 50% of the cells to undergo cell death as assessed by detachment, clumping and the failure to exclude trypan blue dye. […] This is consistent with previous studies showing that low doses of triptolide cause cell cycle arrest rather than apoptosis (Kiviharju, et al., 2002, Clin Cancer Res 8, 2666-2674).
Based upon Applicants' studies examining the concentration dependent effect of triptolide on the two measured biological endpoints, cell death and transcriptional repression, Applicants wanted to determine how modulating triptolide's structure may also discriminate between the two pathways. For cell viability assays, HeLa cells were incubated with 0, 0.1, 1, or 10 μM of each analog or triptolide for 24 hours and then counted using trypan blue dye exclusion. […] NFκB transcriptional inhibition was measured using the κB-luciferase assay as previously described following 5 hours of incubation with each analog (0-10 μM) and TNF-α addition.
HeLa cells were incubated in DMEM or SMEM (Gibco) media+10% FBS and maintained at 37° C. in 5% CO2 for all experiments. HeLa cell viability was assessed by trypan blue dye exclusion, as well as by morphological examination (non-viable cells were rounded and detached from culture plate).

CC(C)[C@]12O[C@H]1[C@@H]1O[C@]13[C@]1(O[C@H]1C[C@H]1C4=C(CC[C@@]13C)C(=O)OC4)[C@@H]2O [triptolide, Triptolide]
calcium release (polycystin-2 [1]): clear rise in intracellular calcium levels | calcium release (polycystin-2 [2]; 100 nM perfused, Pkd2^−/− cells): no calcium release was detected | calcium release (polycystin-2 [2]; 100 nM, Pkd2 re-expressed in Pkd2^−/− cells): restored calcium release | cell proliferation and cell death (HeLa cells [3]): inhibited cell proliferation but did not induce cell death | cell growth (HeLa cells [4]; 10 nM): efficient at arresting cell growth | cell death (HeLa cells [4]; 0.1 μM, 24 hours, analog study): 60% | cell death (HeLa cells [4]; 0.1 μM, 24 hours, analog study, listed as Triptolide): greater than 50% | cell death (HeLa cells [4]; 100 nM, calcium-containing medium, by 24 hours): at least 50% | cell death at the higher concentrations (HeLa cells [4]; 1 or 10 μM versus 0.1 μM, 24 hours): no significant increase | cell death (HeLa cells [4]; 25-100 nM, 24 hours): greater than 50% | cell death (HeLa cells [4]; 25-100 nM, 48 hours): nearly all cells treated within this concentration range of triptolide died | minimal incubation time required for commitment to apoptosis (HeLa cells [4]; HeLa cells): three to four
